Assay results: patent US9056099B2, “Compositions and methods for treating viral diseases” (NovaDrug, LLC, priority 2010, dated 2015)

test system: HCV (JFH-1) in Huh7-1 cells; assay: Assay for anti-HCV efficacy: JFH-1 HCV infection of Huh7-1 cultures, intracellular HCV RNA by RT-qPCR; type: cell-based, Hepatitis C virus; settings: Compound Example 1 series; % viral titer at 5 μM or 15 μM; HCV-infected Huh7-1 cultures
Excerpt: In the past, HCV studies involved mainly infected patients and chimpanzees. Recently, a robust HCV infection system was developed with cells derived from the Huh-7 human hepatoma cell line (see, for example, Yu et al., “Development of a cell-based hepatitis C virus infection fluorescent resonance energy transfer assay for high-throughput antiviral compound screening” Antimicrob Agents Chemother. 2009 53:4311-4319 for additional details regarding growing virus stocks, maintenance of the Huh-7 cells, infection parameters, and HCV titers determinations; and Yu & Uprichard “Cell-based hepatitis C virus infection fluorescence resonance energy transfer (FRET) assay for antiviral compound screening” Curr Protoc Microbiol. 2010; Chapter 17: Unit 17.5). Briefly, the assay is based on the unique JFH-1 HCV consensus cDNA derived from an HCV patient. Using reverse genetics, the infectious virus can be rescued from this HCV clone. The recovered viable JFH virus can be passaged serially in Huh-7 cells. For this reason, this system is amenable for testing the activity of potential drugs for their anti-HCV efficacy. The antiviral activity of the compounds described herein is tested in this system.
Initially, 6×10^3 Huh7-1 cells are incubated overnight in each well of collagen-coated BioCoat 96-well plates (BD Biosciences, Bedford, Mass.) in 0.2 mL 10% Medium composed of Dulbecco's modified Eagle's medium supplemented with 10% fetal bovine serum. Subsequently, at 2 day intervals, the cultures are replenished with fresh 0.2 mL 10% Medium. Once the cultures become confluent, they are continually replenished at 2 day intervals with fresh 0.2 mL 10% Medium that also includes 1% dimethyl sulfoxide (DMSO). After 20 days of these replenishments, the Huh7-1 cultures are incubated with fresh 1% Medium (same as 10% Medium except that the serum level is 1%) containing HCV at a multiplicity of infection (MOI) of 0.05 focus forming units (ffu)/cell. The HCV (JFH-1wt Huh7) stock titer is 1.5×10^5 ffu/mL. The next day (day 1 post-infection) and 2 days later (day 3 post-infection) the media are replenished with fresh 1% Medium containing the test compounds dissolved in DMSO. On the 5th day of treatment with the compounds, cell lysates are collected for RNA isolation and Real Time-quantitative Reverse Transcription Polymerase Chain Reaction (RT-qPCR) and culture media are collected for cytotoxicity analysis.
Total RNA is isolated from cells by the guanidine thiocyanate method using standard protocols. One μg RNA is used for cDNA synthesis using TaqMan reverse transcription reagents (Applied Biosystems, Foster City, Calif.) followed by real-time PCR using an Applied Biosystems 7300 real-time thermocycler. Illustrative thermal cycling consists of initial denaturation of 10 min at 95° C. followed by 40 cycles of denaturation (15 s at 95° C.) and annealing/extension (1 m at 60° C.). HCV and human glyceraldehyde-3-phosphate dehydrogenase (GAPDH) RNA levels are determined relative to a standard curve of serial dilutions of plasmid containing JFH-1 HCV or GAPDH cDNA. The PCR primers used to detect GAPDH and HCV are illustratively: GAPDH (NMX002046) 5′-GAAGGTGAAGGTCGGAGTC-3′ (SEQ ID NO: 5) (sense) and 5′-[…]-3′ (SEQ ID NO: 6) (anti-sense) JFH-1 HCV (AB047639) 5′-TCTGCGGAACCGGTGAGTA-3′ (SEQ ID NO: 7) (sense) and 5′-TCAGGCAGTACCACAAGGC-3′ (SEQ ID NO: 8) (anti-sense).
FIGS. 1-7 illustrate the intracellular HCV RNA levels when cultures are incubated with the selected test compounds at the doses shown. When HCV RNA levels are compared among the samples, the data may indicate that the compounds cause a dose dependent decrease in HCV RNA levels relative to the mock-treated (no compound added) HCV infected control.

Compound	Activity (viral titer)
O=C(c1ccccc1F)N1CC(c2ccsc2)C2CN(Cc3ccccc3F)CCC21 (centres unmarked)	− (>60% viral titer at 15 μM (highest concentration tested))
O=C(c1ccccc1F)N1C[C@H](c2ccsc2)[C@H]2CN(Cc3ccccn3)CC[C@H]21	− (>60% viral titer at 15 μM (highest concentration tested))
O=C(c1ccccc1F)N1C[C@H](c2ccsc2)[C@H]2CN(Cc3cccc(F)c3)CC[C@H]21	++ (≦60% viral titer at 5 μM)
Cc1cccc(CN2CCC3C(C2)C(c2ccsc2)CN3C(=O)c2ccccc2F)c1 (centres unmarked)	++ (≦60% viral titer at 5 μM)
O=C(c1ccccc1F)N1C[C@H](c2ccsc2)[C@H]2CN(Cc3cccnc3)CC[C@H]21	− (>60% viral titer at 15 μM (highest concentration tested))
O=C(c1ccccc1F)N1C[C@H](c2ccsc2)[C@H]2CN(Cc3ccc(F)cc3)CC[C@H]21	+++ (≦30% viral titer at 5 μM)
Cc1ccc(CN2CC[C@@H]3[C@H](C2)[C@@H](c2ccsc2)CN3C(=O)c2ccccc2F)cc1	− (>60% viral titer at 15 μM (highest concentration tested))
O=C(c1ccccc1F)N1CC(c2ccsc2)C2CN(Cc3ccncc3)CCC21 (centres unmarked)	− (>60% viral titer at 15 μM (highest concentration tested))
O=C(c1ccccc1F)N1CC(c2ccsc2)C2CN(Cc3ccccc3)CCC21 (centres unmarked)	− (>60% viral titer at 15 μM (highest concentration tested))
COc1ccc(CN2CCC3C(C2)C(c2ccc(F)cc2)CN3C(=O)c2ccccn2)cc1 (centres unmarked)	− (>60% viral titer at 15 μM (highest concentration tested))
COc1cccc(CN2CCC3C(C2)C(c2ccc(F)cc2)CN3C(=O)c2ccccn2)c1 (centres unmarked)	− (>60% viral titer at 15 μM (highest concentration tested))
O=C(c1ccccn1)N1CC(c2ccc(F)cc2)C2CN(Cc3ccccn3)CCC21 (centres unmarked)	− (>60% viral titer at 15 μM (highest concentration tested))
Cc1cccc(CN2CCC3C(C2)C(c2ccc(F)cc2)CN3C(=O)c2ccccn2)c1 (centres unmarked)	− (>60% viral titer at 15 μM (highest concentration tested))
O=C(c1ccccn1)N1CC(c2ccc(F)cc2)C2CN(Cc3cccnc3)CCC21 (centres unmarked)	− (>60% viral titer at 15 μM (highest concentration tested))
O=C(c1ccccn1)N1CC(c2ccc(F)cc2)C2CN(Cc3ccc(Cl)cc3)CCC21 (centres unmarked)	− (>60% viral titer at 15 μM (highest concentration tested))
O=C(c1cccs1)N1CC(c2ccc(F)cc2)C2CN(Cc3ccccc3F)CCC21 (centres unmarked)	+ (≦60% viral titer at 15 μM)
Cc1ccccc1CN1CC[C@@H]2[C@H](C1)[C@@H](c1ccc(F)cc1)CN2C(=O)c1cccs1	− (>60% viral titer at 15 μM (highest concentration tested))
O=C(c1cccs1)N1C[C@H](c2ccc(F)cc2)[C@H]2CN(Cc3ccccn3)CC[C@H]21	− (>60% viral titer at 15 μM (highest concentration tested))
O=C(c1cccs1)N1C[C@H](c2ccc(F)cc2)[C@H]2CN(Cc3ccccc3)CC[C@H]21	− (>60% viral titer at 15 μM (highest concentration tested))
O=C(c1cccnc1)N1CC(c2ccc(F)cc2)C2CN(Cc3ccccc3Cl)CCC21 (centres unmarked)	− (>60% viral titer at 15 μM (highest concentration tested))
O=C(c1cccnc1)N1C[C@H](c2ccc(F)cc2)[C@H]2CN(Cc3ccc(Cl)cc3)CC[C@H]21	+++ (≦30% viral titer at 5 μM)
O=C(c1cccnc1)N1CC(c2ccc(F)cc2)C2CN(Cc3ccc(F)cc3)CCC21 (centres unmarked)	− (>60% viral titer at 15 μM (highest concentration tested))

Compound	Activity (viral titer)
O=C(c1cccnc1)N1C[C@H](c2ccc(F)cc2)[C@H]2CN(Cc3ccncc3)CC[C@H]21	− (>60% viral titer at 15 μM (highest concentration tested))
O=C(c1cccnc1)N1C[C@H](c2ccc(F)cc2)[C@H]2CN(Cc3ccccc3)CC[C@H]21	++ (≦60% viral titer at 5 μM)
O=C(c1ccc(F)cc1)N1C[C@H](c2ccsc2)[C@H]2CN(Cc3cccs3)CC[C@H]21	− (>60% viral titer at 15 μM (highest concentration tested))
O=C(c1ccncc1)N1CC(c2ccsc2)C2CN(Cc3cccs3)CCC21 (centres unmarked)	− (>60% viral titer at 15 μM (highest concentration tested))
O=C(c1ccncc1)N1CC(c2ccc(F)cc2)C2CN(Cc3cccs3)CCC21 (centres unmarked)	− (>60% viral titer at 15 μM (highest concentration tested))
O=C(c1ccncc1)N1CC(c2ccc(F)cc2)C2CN(Cc3ccsc3)CCC21 (centres unmarked)	− (>60% viral titer at 15 μM (highest concentration tested))
COc1cccc([C@H]2CN(C(=O)c3ccccc3)[C@@H]3CCN(Cc4ccccc4F)C[C@H]23)c1	+ (≦60% viral titer at 15 μM)
COc1cccc(C2CN(C(=O)c3ccccc3)C3CCN(Cc4ccccn4)CC23)c1 (centres unmarked)	− (>60% viral titer at 15 μM (highest concentration tested))
COc1cccc([C@H]2CN(C(=O)c3ccccc3)[C@@H]3CCN(Cc4cccs4)C[C@H]23)c1	− (>60% viral titer at 15 μM (highest concentration tested))
COc1cccc([C@H]2CN(C(=O)c3ccccc3)[C@@H]3CCN(Cc4cccc(F)c4)C[C@H]23)c1	− (>60% viral titer at 15 μM (highest concentration tested))
COc1cccc(C2CN(C(=O)c3ccccc3)C3CCN(Cc4ccsc4)CC23)c1 (centres unmarked)	++ (≦60% viral titer at 5 μM)
COc1cccc(C2CN(C(=O)c3ccccc3)C3CCN(Cc4ccc(C)cc4)CC23)c1 (centres unmarked)	+ (≦60% viral titer at 15 μM)
COc1cccc([C@H]2CN(C(=O)c3ccccc3)[C@@H]3CCN(Cc4ccncc4)C[C@H]23)c1	− (>60% viral titer at 15 μM (highest concentration tested))
COc1cccc([C@H]2CN(C(=O)c3ccccc3)[C@@H]3CCN(Cc4ccccc4)C[C@H]23)c1	− (>60% viral titer at 15 μM (highest concentration tested))
COc1cccc(CN2CCC3C(C2)C(c2ccc(F)cc2)CN3C(=O)c2ccccc2)c1 (centres unmarked)	+++ (≦30% viral titer at 5 μM)
O=C(c1ccccc1)N1C[C@H](c2ccc(F)cc2)[C@H]2CN(Cc3ccc(F)cc3)CC[C@H]21	+++ (≦30% viral titer at 5 μM)
COc1ccc(CN2CC[C@@H]3[C@H](C2)[C@@H](c2ccc(F)cc2)CN3C(=O)c2ccccc2)cc1	++ (≦60% viral titer at 5 μM)
O=C(c1ccccc1)N1CC(c2ccc(F)cc2)C2CN(Cc3ccccc3)CCC21 (centres unmarked)	++ (≦60% viral titer at 5 μM)
COc1ccc(C2CN(C(=O)c3ccccc3)C3CCN(Cc4ccccc4F)CC23)cc1 (centres unmarked)	++ (≦60% viral titer at 5 μM)
COc1ccc(C2CN(C(=O)c3ccccc3)C3CCN(Cc4cccs4)CC23)cc1 (centres unmarked)	− (>60% viral titer at 15 μM (highest concentration tested))
COc1ccc([C@H]2CN(C(=O)c3ccccc3)[C@@H]3CCN(Cc4ccsc4)C[C@H]23)cc1	− (>60% viral titer at 15 μM (highest concentration tested))

same assay, conditions: Compound Example 2 series; % viral titer at 5 μM or 15 μM; HCV-infected Huh7-1 cultures

Compound	Activity (viral titer)
O=C(c1ccccc1)N1C[C@@H](c2ccsc2)[C@@H]2CN(Cc3ccc(Cl)cc3)CC[C@@H]21	++ (≦60% viral titer at 5 μM)
